The record followed here is paper PMC6078987, “Molecular insights into antibiotic resistance - how a binding protein traps albicidin” (Nature Communications, 2018).

One assay has as its system E. coli DH5α. Nature of the assay: Agar diffusion assay. The class given is cell-based. The following applies: for neutralization of antibacterial activity by AlbAS: 40 µM compound pre-incubated with 40 µM AlbAS; for antibacterial activity in agar diffusion assay: 40 µM compound, E. coli DH5α, 18 h 37 °C. Here is the method:
To verify the neutralizing ability of AlbAS, AlbAL, AlbASM, AlbASCTD, or AlbASNTD against different compounds, agar diffusion assays with the respective compounds were performed. An overnight culture of E. coli DH5α was diluted to an OD600 of 0.05 with 0.75% LB-agar. The protein-albicidin reaction mixture consisted of a 1:1 mixture of 40 μM albicidin (or derivatives) with 40 μM protein (either AlbAS or its variants AlbAL, AlbASM, AlbASNTD, and AlbASCTD). The mixture was incubated for 20 min at room temperature in the dark. Reaction mixtures of 30 μL were transferred in triplicates of 2 mm holes on the inoculated agar plate. The plates were evaluated concerning growth-inhibition zone after incubation for 18 h at 37 °C.
In general terms: Agar diffusion results depend on both activity and mobility in agar.

The target in assay [1] is T1, AlbAS (Klebsiella oxytoca, UniProt Q8KRS7).
T1 sequence (Q8KRS7 1-221): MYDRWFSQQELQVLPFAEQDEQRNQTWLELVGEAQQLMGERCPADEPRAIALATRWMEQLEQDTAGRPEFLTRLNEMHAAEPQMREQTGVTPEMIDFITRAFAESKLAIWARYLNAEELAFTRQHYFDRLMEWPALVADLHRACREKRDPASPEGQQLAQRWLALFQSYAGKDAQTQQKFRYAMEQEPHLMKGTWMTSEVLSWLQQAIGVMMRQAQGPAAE
Nature of the assay: 1H-15N HSQC NMR binding assay. The following applies: 15N-labeled AlbAS, 1.5-fold excess of ligand. The procedure: For binding studies with albicidin and its derivatives, each ligand was dissolved in 100% d6-DMSO and added to ^15N-labeled AlbAS or ^2H, ^15N-labeled AlbAL in 50 mM sodium hydrogen phosphate (pH 6.8), 150 mM NaCl buffer (usually 0.24 mM AlbAS or AlbAL in 85% buffer, 5% d6-DMSO, and 10% D2O) yielding a 1.5-fold excess of the ligand. After incubation for 20 min at room temperature in the dark, the sample was centrifuged at 20 000 × g for 3 min and the supernatant was transferred to a 5 mm NMR tube. The AlbAS blank sample (Supplementary Figure 14) was measured in 100% buffer without addition of ligands and DMSO. Spectra were recorded on a Bruker Avance III 700 MHz NMR spectrometer (Bruker BioSpin, Rheinstetten, Germany) with a TXI probe head. Standard Bruker pulse sequences were used. 2D ^1H-^15N HSQC spectra were recorded at 298 K with acquisition times of 90 and 22 ms for the ^1H and ^15N dimension, respectively. The experiments were accumulated with ≥16 scans depending on protein sample concentration. 2D ^1H-^15N TROSY spectra were accumulated with 256 scans and acquisition times of 90 and 22 ms for the ^1H and ^15N dimension, respectively. Several AlbAS–albicidin samples were measured with the same result and a representative spectrum is given for the figures in the main manuscript and the SI. NMR experiments with AlbAS and albicidin analogs were conducted once with accumulation of ≥16 scans depending on protein concentration. For alignment of HSQC and TROSY spectra, the TROSY spectrum was corrected by 1/2 ^1JNH in both dimensions. […]

Assay [2] deals with T1, AlbAS. Briefly: Fluorescence quenching binding assay (tryptophan fluorescence) with AlbAS. To be noted: for Kd: AlbAS 20 nM, fluorescence quenching, pH 6.8. The procedure:
Fluorescence quenching measurements were performed by monitoring tryptophan fluorescence of AlbAS (20 nM), AlbAL (20 nM), AlbASNTD, and AlbASCTD (100 nM) on a FluoroMax 2 spectrometer from Horiba (Potsdam, Germany). The excitation wavelength was set to λexc = 280 nm. Emission spectra were recorded from λem = 290–450 nm with a scanning speed of 1 nm s^−1 and an integration time of 1 s. The excitation and emission slit widths were set to 8 and 4 nm, respectively. Proteins were solved in 50 mM sodium phosphate buffer with 150 mM NaCl and 0.01% DMSO at pH 6.8. All measurements were performed twice and the standard deviation is given for the Kd and the Hill factor n. Data evaluation was performed by integration of the emission band (318–410 nm for AlbAS, 316–412 nm for AlbAL, and 319–390 nm for AlbASNTD and AlbASCTD) for every titration step. The area under the curve (AUC) of the buffer blank (buffer with 0.01% DMSO) was subtracted from the measured titration data. The quenching factor was determined by subtraction of AUCs for each titration step from the AUC of the protein in the absence of ligand. For determination of the AlbAS– and AlbAL–albicidin Kd values, the data were fitted to Eq. (2).2 Y=Bmax[L]^n/Kdn+[L]^n where [L], n, and Bmax denote the total ligand concentration, the Hill coefficient, and the maximum binding capacity of the protein, respectively.
For the determination of the Kd for AlbAS–compound 7 the data were fitted to Eq. (3).3 Y=Pt+L+Kd-Pt+L+Kd^2-4PtL/2 where Pt is the total protein concentration.

Values joined by “and” are separate entries in the source; they are usually repeats but may differ in a detail not shown here. Equal values may be shown once. “Also recorded” adds a separate entry of the source.

On to `COc1c(NC(=O)c2ccc(NC(=O)c3ccc(NC(=O)[C@H](CC#N)NC(=O)c4ccc(NC(=O)/C(C)=C/c5ccc(F)cc5)cc4)cc3)c(OC)c2O)ccc(C(=O)O)c1O` [compound 1], for which the “neutralization of antibacterial activity by AlbAS” value (“neutralization” for short) in the assay with E. coli DH5α was “abolished the antibacterial activity”.
With `COc1c(NC(=O)c2ccc(NC(=O)c3ccc(NC(=O)[C@@H](NC(=O)c4ccc(NC(=O)c5ccc(O)cc5)cc4)[C@@H](C)O)cc3)c(OC)c2O)ccc(C(=O)O)c1O` [compound 2], in the assay on E. coli DH5α, the “neutralization” value is recorded as “confirmed binding” and the “antibacterial activity in agar diffusion assay” value was “strongly antibacterial”. Besides, the “binding to AlbAS by HSQC signal pattern (in words)” value (“binding to AlbAS” for short) on AlbAS [1] is given as “characteristic HSQC signal pattern as in the case of albicidin binding; also recorded: no significant effect on AlbAS binding”.
`COc1c(NC(=O)c2ccc(NC(=O)c3ccc(NC(=O)[C@@H](CC#N)NC(=O)c4ccc(NC(=O)/C(C)=C/c5ccc(O)cc5)cc4)cc3)c(OC)c2O)ccc(C(=O)O)c1O` [compound 3]: the “neutralization” value with E. coli DH5α was “prohibit its antibacterial effects; also recorded: neutralizing effect”. For the same compound, at AlbAS [1], the “binding to AlbAS” value is recorded as “still able to bind; also recorded: binding mode equivalent to that of albicidin”.
As to `C/C(=C\c1ccc(O)cc1)C(=O)Nc1ccc(C(=O)O)cc1` [compound 4], the “antibacterial activity in agar diffusion assay” value with E. coli DH5α is reported as “did not display antibacterial activity”. For the same compound, on AlbAS [2] (AlbAS 20 nM titrated with compound), the “effect on fluorescence emission of AlbAS (in words)” value is reported as “did not lead to significant quenching; also recorded: no consistent effect on fluorescence emission spectra”. Further, the “binding to AlbAS” value on AlbAS [1] is “weak binding”.
For the compound `COc1c(NC(=O)c2ccc(NC(=O)c3ccc(N)cc3)c(OC)c2O)ccc(C(=O)O)c1O` [compound 5], in the assay on E. coli DH5α, the “antibacterial activity in agar diffusion assay” value is given as “did not display antibacterial activity”. Besides, the Kd (commonly the free concentration of one partner at which half of the binding sites on the other are occupied at equilibrium, for simple one-to-one binding) on AlbAS [2] was ~55.5 nM and 55.5 nM. In addition, the “binding to AlbAS” value on AlbAS [1] was “slow-exchange regime (strong binding)”.
For `COc1c(NC(=O)c2ccc(NC(=O)[C@H](CC#N)NC(=O)c3ccc(N)cc3)cc2)ccc(C(=O)O)c1O` [compound 6], in the assay on E. coli DH5α, the “antibacterial activity in agar diffusion assay” value was “did not display antibacterial activity”. The “binding to AlbAS” value on AlbAS [1] was “slow-exchange regime (strong binding)”.
`COC(C(N)=O)C(NC(=O)c1ccc(NC(=O)c2ccc([N+](=O)[O-])cc2)cc1)C(=O)Nc1ccc(C(=O)Nc2ccc(C(=O)Nc3ccc(C(=O)O)cc3OC(C)C)cc2OC(C)C)cc1` (centres unmarked) [compound 7]: the “neutralization” value in the assay with E. coli DH5α is on record as “able to neutralize the antibacterial effects of compound 7, albeit with decreased efficiency”. On AlbAS [2], this compound gave an equilibrium dissociation constant (Kd) of 14 ± 2.9 nM. The “binding to AlbAS” value at AlbAS [1] is recorded as “strong binding of compound 7 in the nanomolar Kd range”.
